Experimental data from patent publication US20250289826A1, “PLPRO PROTEIN INHIBITOR, AND PREPARATION METHOD AND APPLICATION THEREOF” (priority 2022, published 2025).

Molecular target: PLpro (Severe acute respiratory syndrome coronavirus 2 (2019-nCoV) (SARS-CoV-2), UniProt P0DTD1)
Assay: Assay for PLpro inhibitory activity (Ub-AMC fluorescence; single point inhibition test and IC50 determination)
Format: biochemical
Conditions: for IC50: fluorescence measured after 15 min of reaction; for inhibition at 1 µM: read-out: inhibition of PLpro (1 μM), 1 μM test compound, 100 nM PLpro, 10 μM Ub-AMC, 37° C. 30 min; for inhibition of PLpro (1 μM): 1 μM test compound, 100 nM PLpro, 10 μM Ub-AMC, 37° C. 30 min

Compound | IC50 | inhibition at 1 µM | inhibition of PLpro (1 μM)
Cc1ccc(N2CC3CCC(C2)N3)cc1C(=O)NC1(c2cccc3cc(F)ccc23)CC1 [Example C1] | 83 ± 6.63 nM | 97.7% | 
Cc1ccc(N2CCNCC2)cc1C(=O)NC1(c2ccc(F)c3ccccc23)CC1 [Example C2] | 98 ± 12.1 nM | 96.4% | 
Cc1ccc(N2CC3CCC(C2)N3)cc1C(=O)NC1(c2ccc(F)c3ccccc23)CC1 [Example C3] | 40.1 ± 3.01 nM | 96.2% | 
Cc1ccc(N2CC3CCC(C2)N3)cc1C(=O)NC1(c2cccc(-c3cccs3)c2)CC1 [Example C4] |  | 73.4% | 
Cc1ccc(N2CC3CCC(C2)N3C)cc1C(=O)NC1(c2cccc(-c3cccs3)c2)CC1 [Example C5] | 104 ± 6.02 nM | 79.5% | 
Cc1ccc(N2CCNCC2)cc1C(=O)NC1(c2cccc(-c3cccs3)c2)CC1 [Example C6] |  | 56.5% | 
Cc1ccc(N2CC3CCC(C2)N3)cc1C(=O)NC1(c2cccc(C(C)(C)C)c2)CC1 [Example C7] |  | 15% | 
Cc1ccc(N2CC3CCC(C2)N3C)cc1C(=O)NC1(c2cccc(C(C)(C)C)c2)CC1 [Example C8] |  | 37.2% | 
Cc1ccc(N2CC(N(C)C)C2)cc1C(=O)NC1(c2cccc3cc(F)ccc23)CC1 [Example C9] | 52.1 ± 4.18 nM | 98% | 
Cc1ccc(N2CC(N(C)C)C2)cc1C(=O)NC1(c2cccc3cc(F)c(F)cc23)CC1 [Example C10] | 13 ± 2.76 nM | 98.2% | 
Cc1ccc(N2CC(N(C)C)C2)cc1C(=O)NC1(c2ccc(Cl)c3ccccc23)CC1 [Example C11] | 83.1 ± 12.7 nM | 96.8% | 
COc1ccc(C2(NC(=O)c3cc(N4CC(N(C)C)C4)ccc3C)CC2)c2ccccc12 [Example C12] | 18.6 ± 2.3 nM | 97.8% | 
Cc1ccc(N2CC(N(C)C)C2)cc1C(=O)NC1(c2ccc(Br)c3ccccc23)CC1 [Example C13] | 79.8 ± 6.04 nM | 98.5% | 
Cc1ccc(N2CC(N(C)C)C2)cc1C(=O)NC1(c2ccc(C)c3ccccc23)CC1 [Example C14] | 205 ± 13.6 nM | 95.1% | 
Cc1ccc(N2CC(N(C)C)C2)cc1C(=O)NC1(c2ccc(OC(F)F)c3ccccc23)CC1 [Example C15] |  |  | 98.0%
Cc1ccc(N2CC(N(C)C)C2)cc1C(=O)NC1(c2ccc(F)c3ccccc23)CC1 [Example C16] | 56.4 ± 8.48 nM | 89.4% | 
Cc1ccc(N2CC(N(C)C)C2)cc1C(=O)NC1(c2cccc3c(Cl)cccc23)CC1 [Example C17] | 18.7 ± 5.29 nM | 98.1% | 
Cc1ccc(N2CC(N(C)C)C2)cc1C(=O)NC1(c2cccc3c(F)cccc23)CC1 [Example C18] | 17.8 ± 1.94 nM | 97.6% | 
Cc1ccc(N2CC(N(C)C)C2)cc1C(=O)NC1(c2ccccc2)CC1 [Example C19] |  | 4.9% | 
Cc1ccc(N2CC(N(C)C)C2)cc1C(=O)NC1(c2csc3ccccc23)CC1 [Example C20] | 76.5 ± 9.48 nM | 91.9% | 
Cc1ccc(N2CC(N(C)C)C2)cc1C(=O)NC1(c2cccc3c2CCCC3)CC1 [Example C21] | 91.1 ± 8.22 nM | 90.4% | 
Cc1ccc(N2CC(N(C)C)C2)cc1C(=O)NC1(c2ccc(-c3ccccc3)cc2)CC1 [Example C22] |  | 0% | 
Cc1ccc(N2CC(N(C)C)C2)cc1C(=O)NC1(c2cccc(-c3ccccc3)c2)CC1 [Example C23] |  | 5.8% | 
Cc1ccc(N2CC(N(C)C)C2)cc1C(=O)NC1(c2cccc3occc23)CC1 [Example C24] | 423 ± 61.4 nM | 82.3% | 

Compound | IC50 | inhibition at 1 µM | inhibition of PLpro (1 μM)
Cc1ccc(N2CC(N(C)C)C2)cc1C(=O)NC1(C2=CCCc3ccccc32)CC1 [Example C25] |  | 55% | 
Cc1ccc(N2CC(N(C)C)C2)cc1C(=O)NC1(c2cccc3ncccc23)CC1 [Example C27] | 97.6 nM |  | 88.3%
Cc1ccc(N2CC(N(C)C)C2)cc1C(=O)NC1(c2ccnc3ccccc23)CC1 [Example C28] | 129 nM | 89.7% | 
Cc1ccc(N2CC(N(C)C)C2)cc1C(=O)NC1(c2ccnc3c(Cl)cccc23)CC1 [Example C29] | 44.9 nM | 92.9% | 
COc1cccc2c(C3(NC(=O)c4cc(N5CC(N(C)C)C5)ccc4C)CC3)ccnc12 [Example C30] | 67.4 nM | 91.5% | 
Cc1ccc(N2CCCC(N(C)C)C2)cc1C(=O)NC1(c2ccc(F)c3ccccc23)CC1 (centres unmarked) [Example C31] |  | 49.2% | 
Cc1ccc(N2CCCC(N(C)C)C2)cc1C(=O)NC1(c2ccnc3ccccc23)CC1 (centres unmarked) [Example C32] |  | 43.9% | 
Cc1ccc(N2CCS(=O)(=O)CC2)cc1C(=O)NC1(c2ccnc3ccccc23)CC1 [Example C33] |  | 41% | 
Cc1ccc(NC2CN3CCC2CC3)cc1C(=O)NC1(c2ccnc3ccccc23)CC1 (centres unmarked) [Example C34] |  | 31.1% | 
Cc1ccc(N2CCS(=O)(=O)CC2)cc1C(=O)NC1(c2ccc(F)c3ccccc23)CC1 [Example C35] |  | 2.6% | 
COC1(C)CN(c2ccc(C)c(C(=O)NC3(c4cccc5ncccc45)CC3)c2)C1 [Example C36] |  | 3.5% | 
Cc1ccc(N2CC(C(=O)O)C2)cc1C(=O)NC1(c2cccc3ncccc23)CC1 [Example C37] |  | 12.6% | 
COC1(C)CN(c2ccc(C)c(C(=O)NC3(c4ccc(F)c5ncccc45)CC3)c2)C1 [Example C38] |  | 11.7% | 
Cc1ccc(NC2CN3CCC2CC3)cc1C(=O)NC1(c2ccc(F)c3ncccc23)CC1 (centres unmarked) [Example C39] |  | 40.8% | 
Cc1ccc(N2CCCC(N(C)C)C2)cc1C(=O)NC1(c2ccc(F)c3ncccc23)CC1 (centres unmarked) [Example C40] |  | 55.2% | 
Cc1ccc(N2CCS(=O)(=O)CC2)cc1C(=O)NC1(c2ccc(F)c3ncccc23)CC1 [Example C41] |  | 32.8% | 
Cc1ccc(N2CCN(C(C)C)CC2)cc1C(=O)NC1(c2ccnc3ccccc23)CC1 [Example C42] |  | 85.2% | 
Cc1ccc(N2CCN(C3CC3)CC2)cc1C(=O)NC1(c2ccnc3ccccc23)CC1 [Example C43] |  | 71.9% | 
Cc1ccc(N2CCN(C(C)C)CC2)cc1C(=O)NC1(c2ccc(F)c3ncccc23)CC1 [Example C44] |  | 84.9% | 
Cc1ccc(N2CCN(C3CC3)CC2)cc1C(=O)NC1(c2ccc(F)c3ncccc23)CC1 [Example C45] |  | 81.4% | 
Cc1ccc(N2CCN(C3CC3)CC2)cc1C(=O)NC1(c2cccc3ncccc23)CC1 [Example C46] |  | 77.6% | 
Cc1ccc(N2CC(N(C)C)C2)cc1C(=O)NC1(c2ccc3ccccc3c2)CC1 [Example C47] |  | 58% | 
Cc1ccc(N2CCN(C(C)C)CC2)cc1C(=O)NC1(c2ccc(F)c3ccccc23)CC1 [Example C48] |  | 84.4% | 
Cc1ccc(N2CCN(C3CC3)CC2)cc1C(=O)NC1(c2ccc(F)c3ccccc23)CC1 [Example C49] |  | 58.4% | 

Compound | IC50 | inhibition at 1 µM | inhibition of PLpro (1 μM)
Cc1ccc(NC2CCNC2)cc1C(=O)NC1(c2ccc(F)c3ccccc23)CC1 (centres unmarked) [Example C50] |  | 27.8% | 
Cc1ccc(NC2CCN(C)CC2)cc1C(=O)NC1(c2ccc(F)c3ncccc23)CC1 [Example C51] |  | 38.4% | 
Cc1ccc(NC2CCNC2)cc1C(=O)NC1(c2ccc(F)c3ncccc23)CC1 (centres unmarked) [Example C53] |  | 44.9% | 
Cc1ccc(NC2CCNCC2)cc1C(=O)NC1(c2ccc(F)c3ncccc23)CC1 [Example C56] |  | 24.5% | 
Cc1ccc(N2CC(N(C)C)C2)cc1C(=O)NC1(c2cccc3ccsc23)CC1 [Example C57] |  | 92% | 
Cc1ccc(N2CC(N(C)C)C2)cc1C(=O)NC1(c2ccc(OC(F)(F)F)c3ncccc23)CC1 [Example C58] | 220 nM | 88% | 
Cc1ccc(N2CC([N+](C)(C)[O-])C2)cc1C(=O)NC1(c2ccc(F)c3ncccc23)CC1 [Example C59] |  | 0% | 
Cc1ccc(N2CC(N(C)C)C2)cc1C(=O)NC1(c2ccc(F)c3[nH]c(=O)ccc23)CC1 [Example C60] |  | 82% | 
Cc1ccc(N2CC(N(C)C)C2)cc1C(=O)NC1(c2cc(C(F)(F)F)nc3c(C(F)(F)F)cccc23)CC1 [Example C61] |  | 85% | 
Cc1ccc(N2CC(N(C)C)C2)cc1C(=O)NC1(c2ccc(F)c3nc(C(F)F)ccc23)CC1 [Example C62] |  | 92% | 
Cc1ccc(N2CCC(O)CC2)cc1C(=O)NC1(c2ccc(F)c3ncccc23)CC1 [Example C63] |  | 30% | 
COc1ccc2c(C3(NC(=O)c4cc(N5CC(N(C)C)C5)ccc4C)CC3)ccc(F)c2n1 [Example C64] | 50.6 nM | 78% | 
Cc1ccc(N2CC(C(C)(C)O)C2)cc1C(=O)NC1(c2ccc(F)c3ncccc23)CC1 [Example C65] |  | 22% | 
Cc1ccc(N2CC3C(N)C3C2)cc1C(=O)NC1(c2ccc(F)c3ncccc23)CC1 (centres unmarked) [Example C66] |  | 68% | 
Cc1ccc(N2CC(N(C)C)C2)cc1C(=O)NC1(c2ccnc3c(F)cccc23)CC1 [Example C67] | 36.6 nM | 97.7% | 
Cc1ccc(N2CC(N(C)C)C2)cc1C(=O)NC1(c2ccc(OC(F)F)c3ccccc23)CC1 [Example C68] | 182 nM | 98.5% | 
Cc1ccc(N2CC(N(C)C)C2)cc1C(=O)NC1(c2ccc(OC(F)F)c3ncccc23)CC1 [Example C69] | 29.3 nM | 98.8% | 
Cc1ccc(N2CC(N(C)C)C2)cc1C(=O)NC1(c2ccc(C#N)c3ccccc23)CC1 [Example C70] | 40.6 nM | 99.2% | 
Cc1ccc(N2CC(N(C)C)C2)cc1C(=O)NC1(c2cccc(Oc3ccccc3)c2)CC1 [Example C71] |  | 25% | 
Cc1ccc(N2CC(N(C)C)C2)cc1C(=O)NC1(c2ccc3c(c2)c2ccccc2n3C)CC1 [Example C72] |  | 91% | 
Cc1ccc(N2CC(N(C)C)C2)cc1C(=O)NC1(c2cnc(O)c3ccccc23)CC1 [Example C73] | 172 ± 18.1 nM | 89.3% | 
COc1ncc(C2(NC(=O)c3cc(N4CC(N(C)C)C4)ccc3C)CC2)c2ccccc12 [Example C74] | 217 ± 22.2 nM | 88.6% | 
